For the test, the target named is Recombinant Human Enteropeptidase (Homo sapiens (Human), UniProt P98073). Nature of the test: Enteropeptidase Inhibition Assay. The note with it: substrate Acetyl-Asp-Asp-Asp-Asp-Lys-AFC 30 μM, 30° C., 1 hour; Ki calculated from IC50 using Cheng-Prusoff equation. The test is classed as biochemical. As for the experimental part:
Enteropeptidase Inhibition Assay
The inhibitory activity of the enteropeptidase inhibitor synthesized using the purified Recombinant Human Enteropeptidase and the substrate Acetyl-Asp-Asp-Asp-Asp-Lys-AFC (BioVision) was measured. 7.2 ng/mL of Enteropeptidase diluted with a buffer (20 mM Tris, 50 mM NaCl, pH 7.5) in a 96 well plate (Costar), 30 μM of Acetyl-Asp-Asp-Asp-Asp-Lys-AFC, several concentrations of Enteropeptidase inhibitors (1% DMSO concentration) were dispensed such that a final volume was 100 μL, and then the enzyme reaction was carried out at 30° C. for 1 hour. At this time, 1% DMSO, a substrate and Enteropeptidase instead of the compound were dispensed onto positive control wells, and 1% DMSO and a substrate were dispensed onto negative control wells. The enzyme reaction was […] using an excitation wavelength of 380 nm and an emission wavelength of 500 nm in a fluorescence spectrometer, and then the rate of increase in fluorescence (milli-units per min) between 20 and 60 minutes was measured.
The fluorescence measurement values reduced by the inhibitor diluted at each concentration were converted into relative values % of the positive control group (100% reactivity) and the negative control group (0% reactivity), and used to calculate IC50 values. IC50 is the concentration of the inhibitor that inhibits the enzyme activity by 50%, and was calculated using PRISM (GraphPad). Ki values were calculated from the IC50 values using Cheng-Prusoff equation.

The term Ki denotes a dissociation constant, usually derived from enzyme kinetics or from competition with a known ligand.

Recombinant Human Enteropeptidase, sequence (P98073 whole entry): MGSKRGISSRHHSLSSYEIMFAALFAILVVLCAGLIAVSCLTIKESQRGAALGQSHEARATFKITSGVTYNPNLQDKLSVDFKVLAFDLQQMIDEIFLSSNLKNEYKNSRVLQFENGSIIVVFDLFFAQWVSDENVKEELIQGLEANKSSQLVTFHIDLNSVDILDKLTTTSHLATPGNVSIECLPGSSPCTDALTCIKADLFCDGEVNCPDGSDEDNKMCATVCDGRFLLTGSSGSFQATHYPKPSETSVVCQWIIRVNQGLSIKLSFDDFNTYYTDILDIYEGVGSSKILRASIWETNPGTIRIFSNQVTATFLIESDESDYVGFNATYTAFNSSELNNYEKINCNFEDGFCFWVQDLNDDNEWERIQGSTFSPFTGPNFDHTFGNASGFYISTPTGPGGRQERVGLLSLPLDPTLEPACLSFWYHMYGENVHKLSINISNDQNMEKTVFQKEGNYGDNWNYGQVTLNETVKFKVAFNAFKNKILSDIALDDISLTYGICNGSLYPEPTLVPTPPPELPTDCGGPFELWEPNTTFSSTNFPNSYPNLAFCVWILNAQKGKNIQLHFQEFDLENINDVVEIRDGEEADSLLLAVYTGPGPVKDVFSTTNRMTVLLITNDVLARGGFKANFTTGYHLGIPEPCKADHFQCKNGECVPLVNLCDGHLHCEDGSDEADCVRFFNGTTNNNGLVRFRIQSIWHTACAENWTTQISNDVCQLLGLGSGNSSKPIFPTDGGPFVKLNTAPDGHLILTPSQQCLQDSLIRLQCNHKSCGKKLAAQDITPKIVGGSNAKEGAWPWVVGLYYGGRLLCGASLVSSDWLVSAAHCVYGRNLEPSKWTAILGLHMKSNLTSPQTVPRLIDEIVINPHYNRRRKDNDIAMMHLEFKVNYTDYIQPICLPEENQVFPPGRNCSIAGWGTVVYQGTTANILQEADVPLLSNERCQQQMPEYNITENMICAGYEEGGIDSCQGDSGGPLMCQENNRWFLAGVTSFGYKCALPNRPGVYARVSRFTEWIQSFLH

As to `N=C(N)c1ccc(OC(=O)c2cnc(N3CCC(C(=O)O)CC3)s2)cc1` [Example 2, 1-(5-((4-Carbamimidoylphenoxy)carbonyl)thiazol-2-yl)piperidine-4-carboxylic Acid], the Ki is 4.9 nM.
On to `CN(CCCC(=O)O)C(=O)C1CCN(c2ncc(C(=O)Oc3ccc(C(=N)N)cc3F)s2)CC1` [Example 44, 4-(1-(5-((4-carbamimidoyl-2-fluorophenoxy)carbonyl)thiazol-2-yl)-N-methylpiperidine-4-carboxamido)butanoic Acid], for which the Ki is 1.6 nM.
As to `N=C(N)Nc1ccc(OC(=O)c2cnc(N3CCC(C(=O)O)CC3)s2)cc1` [Example 6, 1-(5-((4-Guanidinophenoxy)carbonyl)thiazol-2-yl)piperidine-4-carboxylic Acid], the Ki is 220 nM.
In the case of `COC(=O)CNC(=O)C1CCN(c2ncc(C(=O)Oc3ccc(C(=N)N)cc3F)s2)CC1` [Example 37, 4-Carbamimidoyl-2-fluorophenyl 2-(4-((2-methoxy-2-oxoethyl)carbamoyl)piperidin-1-yl)thiazole-5-carboxylate], the Ki is 1.8 nM.
Turning to `CCN(CCC(=O)OC)c1ncc(C(=O)Oc2ccc(C(=N)N)cc2F)s1` [Example 20, 4-Carbamimidoyl-2-fluorophenyl 2-(ethyl(3-methoxy-3-oxopropyl)amino) thiazole-5-carboxylate], the inhibition constant Ki was 2.5 nM.
`CC(C)(CNC(=O)C1CCN(c2ncc(C(=O)Oc3ccc(C(=N)N)cc3F)s2)CC1)C(=O)O` [Example 45, 3-(1-(5-((4-Carbamimidoyl-2-fluorophenoxy)carbonyl)thiazol-2-yl)piperidine-4-carboxamido)-2,2-dimethylpropanoic Acid]: the Ki was 1.5 nM.
The same measure for `CCN(CCC(=O)OC)c1nc2ccc(C(=O)Oc3ccc(C(=N)N)cc3F)cc2s1` [Example 84, 4-Carbamimidoyl-2-fluorophenyl 2-(ethyl(3-methoxy-3-oxopropyl)amino)benzo[d]thiazole-6-carboxylate]: 2.2 nM; for `COC(=O)C(C)(C)CN(C)c1ncc(C(=O)Oc2ccc(C(=N)N)cc2)s1` [Example 18, 4-Carbamimidoylphenyl 2-((3-methoxy-2,2-dimethyl-3-oxopropyl)(methyl)amino)thiazole-5-carboxylate]: 8.9 nM.
For `N=C(N)c1ccc(OC(=O)c2ccc3nc(N4CCC(NC(=O)c5ccccc5)CC4)sc3c2)c(F)c1` [Example 82, 4-Carbamimidoyl-2-fluorophenyl 2-(4-benzoamidopiperidin-1-yl)benzo[d]thiazole-6-carboxylate], the Ki is 1.9 nM.
With `N=C(N)c1ccc(OC(=O)c2ccc3nc(N4CCC(C(=O)Nc5ccccc5)CC4)sc3c2)cc1` [Example 80, 4-Carbamimidoylphenyl 2-(4-(phenylcarbamoyl)piperidin-1-yl)benzo[d]thiazole-6-carboxylate] the figure was 23 nM.
As for `COC(=O)CCCN(C)c1ncc(C(=O)Oc2ccc(C(=N)N)cc2F)s1` [Example 21, 4-Carbamimidoyl-2-fluorophenyl 2-((4-methoxy-4-oxobutyl)(methyl)amino)thiazole-5-carboxylate], the Ki was 3 nM.
On to `CCN(CCC(=O)Nc1cccc(C(=O)OC)c1)c1ncc(C(=O)Oc2ccc(C(=N)N)cc2F)s1` [Example 51, 4-Carbamimidoyl-2-fluorophenyl 2-(ethyl(3-((3-(methoxycarbonyl)phenyl)amino)-3-oxopropyl)amino)thiazole-5-carboxylate], for which the Ki is 9.7 nM.
On to `COC(=O)C(C)(C)CNC(=O)C1CCN(c2ncc(C(=O)Oc3ccc(C(=N)N)cc3F)s2)CC1` [Example 39, 4-Carbamimidoyl-2-fluorophenyl 2-(4-((3-methoxy-2,2-dimethyl-3-oxopropyl)carbamoyl)piperidin-1-yl)thiazole-5-carboxylate], for which the inhibitory constant (Ki) is 2.5 nM.
On to `CN(CCC(=O)O)c1ncc(C(=O)Oc2ccc(C(=N)N)cc2)s1` [Example 9], for which the Ki was 28 nM.
The same measure for `CCN(CC(C)(C)C(=O)OC)c1nc2ccc(C(=O)Oc3ccc(C(=N)N)cc3F)cc2s1` [Example 70, 4-Carbamimidoyl-2-fluorophenyl 2-(ethyl(3-methoxy-2,2-dimethyl-3-oxopropyl)amino)benzo[d]thiazole-6-carboxylate]: 3.5 nM; for `CN(CC(C)(C)C(=O)O)c1ncc(C(=O)Oc2ccc(C(=N)N)cc2)s1` [Example 19]: 4.8 nM; for `CCN(CC(C)(C)C(=O)OC)c1nc2ccc(C(=O)Oc3ccc(C(=N)N)cc3)cc2s1` [Example 69, 4-Carbamimidoylphenyl 2-(ethyl(3-methoxy-2,2-dimethyl-3-oxopropyl)amino)benzo[d]thiazole-6-carboxylate]: 21 nM.
As to `COC(=O)CCNC(=O)C1CCN(c2ncc(C(=O)Oc3ccc(C(=N)N)cc3)s2)CC1` [Example 30, 4-Carbamimidoylphenyl 2-(4-((3-methoxy-3-oxopropyl)carbamoyl)piperidin-1-yl)thiazole-5-carboxylate], the Ki is 18 nM.
`N=C(N)c1ccc(OC(=O)c2ccc3nc(N4CCC(NC(=O)c5ccccc5)CC4)sc3c2)cc1` [Example 83, 4-Carbamimidoylphenyl 2-(4-benzoamidopiperidin-1-yl)benzo[d]thiazole-6-carboxylate]: the Ki was 9.7 nM.
